The conditions of data set [1]: pH 2.7.
For data set [2], the system named is Pyricularia oryzae. Format: in vivo. As to conditions: 500 ppm of active ingredient; rice, preventive; evaluated 8 days after inoculation.
Data set [3] deals with Botrytis cinerea. The data set is described as follows: In vivo preventive test on Botrytis cinerea (grey mould). The conditions noted are these: 100 ppm of active ingredient; gherkin plants, preventive spray; evaluated 4 to 5 days after inoculation. The procedure:
The young plants of gherkin are treated by spraying the active ingredient prepared as described above. Control plants are treated only with an aqueous solution of acetone/Dimethyl sulfoxide/tween®. After 24 hours, the plants are contaminated by spraying the leaves with an aqueous suspension of Botrytis cinerea spores.

The subject of data set [4] is Pyrenophora teres. The data set is described as follows: In vivo preventive test on Pyrenophora teres (net blotch on barley). The conditions noted are these: 500 ppm of active ingredient; barley plants, preventive spray; evaluated 14 days after inoculation. The procedure: The young plants of barley are treated by spraying the active ingredient prepared as described above. Control plants are treated only with an aqueous solution of acetone/Dimethyl sulfoxide/tween®. After 24 hours, the plants are contaminated by spraying the leaves with an aqueous suspension of Pyrenophora teres spores.

The structures appear in SMILES notation. Marks after values point to notes of the source that are not given here.

As to `OC(Cc1cccnc1Cl)(Cn1ncnc1S)C1(F)CC1` (stereo not drawn) [Example I-11], the LogP in data set [1] was 1.76^[a]. This molecule also had a biological efficacy in data set [2] of no less than 90%.
`OC(Cc1ccncc1Cl)(Cn1ncnc1S)C1(F)CC1` (stereo not drawn) [Example I-13]: in data set [1], the LogP is 1.63^[a]. In addition, the biological efficacy in data set [3] is recorded as no less than 90%.
As to `CCC(C)(C)C(O)(Cc1ccncc1F)Cn1ncnc1S` (stereo not drawn) [Example I-17], the biological efficacy in data set [4] was no less than 90%. Moreover, in data set [1], the LogP is 2.14^[a].

The values are drawn from US9550752B2, “Triazolinthione derivatives” (priority 2013, dated 2017).
